The experiment deals with BV-2 (mouse microglia) cells. As to the kind of experiment: progranulin secretion from BV-2 cells, mouse progranulin ELISA of conditioned media. It counts as cell-based. The following applies: BV-2 cells, 16 hours incubation, 8-point curves starting at 10 μM. The procedure: BV-2 cells are split the day before plating into a 96 well plate format at approximately 80%. Cells should be plated the day before and allowed for 1 hour attachment period and for 16 hour incubation. […] Standard ELISA kits to measure PGRN are available from vendors such as Adipogen, R&D, and Biovendor.
Compound potency was determined by measuring progranulin secretion from BV-2 (mouse microglia) cells. BV-2 cells were grown in RPMI with 2 mM L-glutamine supplemented with 10% fetal bovine serum. On the day of the assay, cells were plated in 96-well plates at a density of 30,000 cells/well in RPMI (Roswell Park Memorial Institute media)/L-glutamine supplemented with 2% Fetal clone serum II (plating media) and left to adhere for 1 hour. Following attachment to the plate, media was replaced with treatment (8-point curves in half-log dilutions starting at 10 μM) in plating media and incubated for 16 hours. Secreted progranulin was measured from a 1:10 dilution of the conditioned media using the R&D Systems mouse progranulin ELISA kit (cat #DY2557) and following the manufacturer's instructions.
In general terms: In an ELISA, binding on a coated surface is turned into a signal by an enzyme label.

The mark [1] stands for this setting: Mus musculus, BV-2, 16 h, assay run v1, read-out: PRGN v1 (EC50, progranulin secretion).
Setting [2] is: Mus musculus, BV-2, 16 h, assay run v2 (same protocol, different assay), read-out: PRGN v2 (EC50, progranulin secretion).
Where [3] appears, read: Mus musculus, assay run v1, read-out: PRGN v1 (EC50, progranulin secretion).
[4] abbreviates: assay run v2 (same protocol, different assay), read-out: PRGN v2 (EC50, progranulin secretion).

Read-outs that look alike come from different tables or passages of the source. Bounds are passed on as bounds.

With `O=C(C[C@@H]1CN2CCC1CC2)N1CCc2ccccc2[C@@H]1c1ccc(OC2CC2)cc1` [Compound 1068], the EC50 reads like this: under setting [1], 6.14 µM; under setting [2], above 10 µM. Taken in the same sequence, the figures for `O=C(C[C@@H]1CN2CCC1CC2)N1CCc2ccccc2[C@H]1c1ccc(OC2CC2)cc1` [Compound 1069] were above 10 µM and above 10 µM. `O=C(N[C@@H]1CN2CCC1CC2)N1CCc2ccccc2[C@@H]1c1ccc(F)cc1` [Compound 1070]: the EC50 is, setting by setting: under setting [3], 0.18 µM; (Mus musculus, assay run v2 (same protocol, different assay), read-out: PRGN v2 (EC50, progranulin secretion)) 0.26 µM. Take `O=C(N[C@@H]1CN2CCC1CC2)N1CCc2ccccc2[C@H]1c1ccc(F)cc1` [Compound 1071]: the EC50 under setting [3] stood at 0.41 µM. Turning to `CS(=O)(=O)c1ccc([C@H]2c3ccccc3CCN2C(=O)N[C@@H]2CN3CCC2CC3)cc1` [Compound 1072, (S)-1-(4-(methylsulfonyl)phenyl)-N—((S)-quinuclidin-3-yl)-3,4-dihydroisoquinoline-2(1H)-carboxamide], under setting [1], the EC50 was above 4.41 µM.

For the compound `COc1ccc([C@H]2c3ccccc3CCN2C(=O)N[C@@H]2CN3CCC2CC3)cc1` [Compound 1073], the EC50 under setting [1] amounted to 4.96 µM.

Turning to `COc1ccc([C@@H]2c3ccccc3CCN2C(=O)N[C@@H]2CN3CCC2CC3)cc1` [Compound 1074], the EC50 under setting [1] was above 10 µM. Same read-out and setting: as for `O=C(N[C@@H]1CN2CCC1CC2)N1CCc2ccccc2[C@@H]1c1ccc(F)c(F)c1` [Compound 1075], the figure is 0.19 µM; as for `O=C(N[C@@H]1CN2CCC1CC2)N1CCc2ccccc2[C@H]1c1ccc(F)c(F)c1` [Compound 1076], above 10 µM. Turning to `O=C(N[C@@H]1CN2CCC1CC2)N1CCc2ccccc2[C@@H]1c1ccncc1` [Compound 1077], the concentration giving a half-maximal response (EC50) under setting [1] was above 10 µM. On the same count and under the same terms, to `O=C(N[C@@H]1CN2CCC1CC2)N1CCc2ccccc2[C@H]1c1ccncc1` [Compound 1078] belongs above 10 µM; to `O=C(N[C@@H]1CN2CCC1CC2)N1CCc2ccccc2[C@@H]1c1ccc2nccn2c1` [Compound 1079], 3.69 µM.

For the compound `O=C(N[C@@H]1CN2CCC1CC2)N1CCc2ccccc2[C@H]1c1ccc2nccn2c1` [Compound 1080], the EC50 under setting [1] was above 10 µM. Still for that read-out and setting: to `O=C(N[C@@H]1CN2CCC1CC2)N1CCc2ccccc2[C@@H]1c1ccc(Cl)cc1` [Compound 1081] belongs 0.25 µM. Consider `O=C(N[C@@H]1CN2CCC1CC2)N1CCc2ccccc2[C@H]1c1ccc(Cl)cc1` [Compound 1082], for which, under setting [1], the half-maximal effective concentration (EC50) stood at 1.6 µM. On the same count and under the same terms, as for `COc1ccc([C@H]2c3ccccc3CCN2C(=O)N[C@@H]2CN3CCC2CC3)cn1` [Compound 1083], the figure is 2.55 µM; as for `COc1ccc([C@@H]2c3ccccc3CCN2C(=O)N[C@@H]2CN3CCC2CC3)cn1` [Compound 1084], above 3.16 µM; as for `O=C(N[C@@H]1CN2CCC1CC2)N1CCc2ccccc2[C@@H]1c1cccnc1` [Compound 1085], 1.78 µM.

Consider `O=C(N[C@@H]1CN2CCC1CC2)N1CCc2ccccc2[C@H]1c1cccnc1` [Compound 1086], for which the EC50 under setting [1] was found to be 3.13 µM. As to `CC(C)Oc1ccc([C@H]2c3ccccc3CCN2C(=O)N[C@@H]2CN3CCC2CC3)cc1` [Compound 1087], under setting [1], the EC50 is above 10 µM. On the same count and under the same terms, to `CC(C)Oc1ccc([C@@H]2c3ccccc3CCN2C(=O)N[C@@H]2CN3CCC2CC3)cc1` [Compound 1088] belongs above 10 µM. On the same count and under the same terms, to `CC1([C@H]2c3ccccc3CCN2C(=O)N[C@@H]2CN3CCC2CC3)COC1` [Compound 1089] belongs above 10 µM; to `CC1([C@@H]2c3ccccc3CCN2C(=O)N[C@@H]2CN3CCC2CC3)COC1` [Compound 1090], above 10 µM; to `O=C(N[C@@H]1CN2CCC1CC2)N1CCc2ccccc2[C@@H]1c1ccc(OCc2ccccc2)cc1` [Compound 1091], 0.34 µM. In the case of `O=C(N[C@@H]1CN2CCC1CC2)N1CCc2ccccc2[C@H]1c1ccc(OCc2ccccc2)cc1` [Compound 1092], the EC50 under setting [1] worked out at 2.21 µM.

Take `O=C(N[C@@H]1CN2CCC1CC2)N1CCc2ccccc2[C@@H]1c1ccc(O)cc1` [Compound 1093]: the EC50 under setting [1] was above 3.16 µM. Turning to `O=C(N[C@@H]1CN2CCC1CC2)N1CCc2ccccc2[C@H]1c1ccc(O)cc1` [Compound 1094], the EC50 under setting [1] came out at 1.29 µM. Take `O=C(N[C@@H]1CN2CCC1CC2)N1CCc2ccccc2[C@@H]1c1ccc(-n2ccnc2)cc1` [Compound 1095]: the EC50 under setting [1] is above 10 µM. Turning to `O=C(N[C@@H]1CN2CCC1CC2)N1CCc2ccccc2[C@H]1c1ccc(-n2ccnc2)cc1` [Compound 1096], the EC50 under setting [1] turned out to be 0.45 µM. The same measure, in the same setting: to `O=C(N[C@@H]1CN2CCC1CC2)N1CCc2ccccc2[C@@H]1c1ccn2cncc2c1` [Compound 1097] belongs above 10 µM; to `O=C(N[C@@H]1CN2CCC1CC2)N1CCc2ccccc2[C@H]1c1ccn2cncc2c1` [Compound 1098], above 10 µM; to `O=C(N[C@@H]1CN2CCC1CC2)N1CCc2ccccc2[C@@H]1c1ccc(-n2ccnn2)cc1` [Compound 1099], above 10 µM. On the same count and under the same terms, as for `O=C(N[C@@H]1CN2CCC1CC2)N1CCc2ccccc2[C@H]1c1ccc(-n2ccnn2)cc1` [Compound 1100], the figure is above 10 µM. As to `O=C(N[C@@H]1CN2CCC1CC2)N1CCc2ccccc2[C@@H]1c1ccc(-n2cncn2)cc1` [Compound 1101], the EC50 under setting [1] came out at 3.85 µM. On the same count and under the same terms, as for `O=C(N[C@@H]1CN2CCC1CC2)N1CCc2ccccc2[C@H]1c1ccc(-n2cncn2)cc1` [Compound 1102], the figure is above 10 µM; as for `O=C(N[C@@H]1CN2CCC1CC2)N1CCc2ccccc2[C@@H]1c1ccc(N2CCCC2)cc1` [Compound 1103], above 10 µM.

Take `O=C(N[C@@H]1CN2CCC1CC2)N1CCc2ccccc2[C@H]1c1ccc(N2CCCC2)cc1` [Compound 1104]: the EC50 under setting [1] stood at 5.09 µM. `O=C(N[C@@H]1CN2CCC1CC2)N1CCc2ccccc2[C@@H]1c1ccn2ccnc2c1` [Compound 1105]: the EC50 is above 10 µM under setting [1] and above 10 µM under setting [2].

In the case of `O=C(N[C@@H]1CN2CCC1CC2)N1CCc2ccccc2[C@H]1c1ccn2ccnc2c1` [Compound 1106], the EC50 reads like this: under setting [1], above 10 µM; under setting [2], above 10 µM.

As to `O=C(N[C@@H]1CN2CCC1CC2)N1CCc2ccccc2[C@@H]1c1ccc2cccn2c1` [Compound 1107], the EC50 was found to be 3.7 µM under setting [4] and 5.43 µM under setting [1]. Take `O=C(N[C@@H]1CN2CCC1CC2)N1CCc2ccccc2[C@@H]1c1ccc2cccn2c1` [Compound 1108]: the EC50 reads like this: (assay run v1, read-out: PRGN v1 (EC50, progranulin secretion)) 5.63 µM; under setting [4], above 10 µM. For `O=C(N[C@@H]1CN2CCC1CC2)N1CCc2ccccc2[C@@H]1c1cccc(F)c1` [Compound 1109], the EC50 runs as follows: under setting [1], 1.03 µM; under setting [2], 1.44 µM. Turning to `O=C(N[C@@H]1CN2CCC1CC2)N1CCc2ccccc2[C@H]1c1cccc(F)c1` [Compound 1110], the EC50 was 6.19 µM under setting [1] and above 10 µM under setting [2]. The like results for `O=C(N[C@@H]1CN2CCC1CC2)N1CCc2ccccc2[C@@H]1c1ccc2cncn2c1` [Compound 1111] were, in that order, 9.91 µM and above 10 µM. The like results for `O=C(N[C@@H]1CN2CCC1CC2)N1CCc2ccccc2[C@H]1c1ccc2cncn2c1` [Compound 1112] were, in that order, above 10 µM and above 10 µM. The like results for `O=C(N[C@@H]1CN2CCC1CC2)N1CCc2ccccc2[C@@H]1c1ccc(-n2cnnc2)cc1` [Compound 1113] were, in that order, 3.59 µM and above 10 µM.

Broadly, the EC50 is the concentration giving half of the maximal effect.

For the origin of these results see patent publication US20210163471A1, “PROGRANULIN MODULATORS AND METHODS OF USING THE SAME” (ARKUDA THERAPEUTICS, priority 2017, published 2021).
